Reference: PubChem BioAssay (NCI)
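Results reflect a 48-hour exposure of cells in 96-well plates to compound at five concentrations. TGI: total growth inhibition.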

How the values were obtained:
Test in all cases: NCI-60 cell line screen, 48 h
CAKI-1 renal = tested on: CAKI-1 renal
CCRF-CEM leukemia = tested on: CCRF-CEM leukemia
NCI-H460 lung = tested on: NCI-H460 lung
OVCAR-3 ovarian = tested on: OVCAR-3 ovarian
SK-MEL-28 melanoma = tested on: SK-MEL-28 melanoma
SK-MEL-5 melanoma = tested on: SK-MEL-5 melanoma
SW-620 colon = tested on: SW-620 colon
HOP-92 NSCLC = tested on: HOP-92 NSCLC
SK-MEL-2 melanoma = tested on: SK-MEL-2 melanoma
SK-OV-3 ovarian = tested on: SK-OV-3 ovarian

Compound	TGI (CAKI-1 renal) [µM]	TGI (CCRF-CEM leukemia) [µM]	TGI (NCI-H460 lung) [µM]	TGI (OVCAR-3 ovarian) [µM]	TGI (SK-MEL-28 melanoma) [µM]	TGI (SK-MEL-5 melanoma) [µM]	TGI (SW-620 colon) [µM]	TGI (HOP-92 NSCLC) [µM]	TGI (SK-MEL-2 melanoma) [µM]	TGI (SK-OV-3 ovarian) [µM]
COc1ccc(NS(=O)c2ccc(-c3ccccc3)cc2)cc1 (stereo not drawn)	> 100	> 100	> 100	> 100	> 100	> 100	> 100	–	–	–
Cc1nc(Cl)c(Cl)c(Cl)n1	–	0.0333	6.33	0.281	1.2	1.97	0.149	0.849	2.73	7.53
O=c1[nH][nH]c(=O)[nH]1	> 100	> 100	> 100	> 100	> 100	> 100	> 100	> 100	> 100	> 100
CC1SC(c2ccccc2)N(Nc2c3ccccc3nc3ccccc23)C1=O (stereo not drawn)	> 100	> 100	> 100	> 100	> 100	> 100	> 100	–	> 100	> 100
CNC(C)Cc1ccccc1O (stereo not drawn)	> 100	> 100	> 100	> 100	> 100	> 100	> 100	> 100	> 100	> 100
CO[C@H]1[C@@H](O)[C@@H](C)O[C@@H](O[C@H]2CC[C@@]3(C)[C@H](CC[C@@H]4[C@@H]3CC[C@]3(C)[C@@H](C5=CC(=O)OC5)CC[C@]43O)C2)[C@@H]1O	0.0128	0.37	0.00625	0.013	1.01	0.0342	2.51	0.0685	0.0538	0.0491
CCn1nc(C)c2c1C(=O)NC(C)C(=O)N2 (stereo not drawn)	> 100	–	> 100	> 100	> 100	> 100	> 100	> 100	–	> 100
CN(C)CCNc1ccc2ncnc3c2c1C(=O)c1ccccc1-3	2.01	2.89	5.01	10.1	10.9	4.99	3.81	8.43	10.8	> 72.4
